Results taken from the supplement of paper PMC10307832.

How the values were obtained:
Experiment in all cases: relative viability (nuclei count vs DMSO), 5 days (fraction); higher = more cells survive
[1] = compound: CC(C)=CC[C@@H](O)C1=CC(=O)c2c(O)ccc(O)c2C1=O [Shikonin] + CS(=O)(=O)CCNCc1ccc(-c2ccc3ncnc(Nc4ccc(OCc5cccc(F)c5)c(Cl)c4)c3c2)o1 [Lapatinib] (partner 2 µM)
Method in brief: (§1)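 Relative viability divides the nuclei count in treated wells by that in vehicle wells. Lung cancer cell lines were seeded in 1536-well plates, dosed by pin tool the next day, and fixed and stained after 5 days in one step with final 0.05% Triton X-100, 1% formaldehyde and 1 ug/ml Hoechst. Dosing was a single drug or a fixed anchor-drug dose plus five library-drug doses (not always all listed) in √10 steps, and values are medians of duplicate plates imaged at 4×.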

[2] = compound: CC(C)=CC[C@@H](O)C1=CC(=O)c2c(O)ccc(O)c2C1=O [Shikonin] + C[C@]1(O)C[C@@H](c2nc(-c3ccc4ccc(-c5ccccc5)nc4c3)c3c(N)nccn32)C1 [Linsitinib] (partner 1 µM)
Method in brief: as §1

[3] = compound: CC(C)N(CCCNC(=O)Nc1ccc(C(C)(C)C)cc1)C[C@H]1O[C@@H](n2ccc3c(N)ncnc32)[C@H](O)[C@@H]1O + CC(=O)Nc1cccc(-n2c(=O)n(C3CC3)c(=O)c3c(Nc4ccc(I)cc4F)n(C)c(=O)c(C)c32)c1 [Trametinib] (partner 0.02 µM)
Method in brief: as §1

[4] = compound: CC(C)N(CCCNC(=O)Nc1ccc(C(C)(C)C)cc1)C[C@H]1O[C@@H](n2ccc3c(N)ncnc32)[C@H](O)[C@@H]1O + O=C(CCCCCCC(=O)Nc1ccccc1)NO [Vorinostat] (partner 1 µM)
Method in brief: as §1

UMC-11 gave a relative viability ([1]; first compound 0.01 µM) of 1, a relative viability ([1]; first compound 0.1 µM) of 1.08 and a relative viability ([1]; first compound 0.3162 µM) of 1. For the same cell line, the relative viability ([1]; first compound 1 µM) was 1.12, the relative viability ([2]; first compound 0.01 µM) was 1.02 and the relative viability ([2]; first compound 0.1 µM) was 1.19. It also gave a relative viability ([2]; first compound 0.3162 µM) of 1.1, a relative viability ([2]; first compound 1 µM) of 1.13 and a relative viability ([3]; first compound 0.08 µM) of 0.691. For the same cell line, the relative viability ([3]; first compound 0.253 µM) was 0.541, the relative viability ([3]; first compound 0.8 µM) was 0.588 and the relative viability ([3]; first compound 2.53 µM) was 0.789. For the same cell line, the relative viability ([3]; first compound 8 µM) was 0.796, the relative viability ([4]; first compound 0.08 µM) was 0.357 and the relative viability ([4]; first compound 0.253 µM) was 0.419. For the same cell line, the relative viability ([4]; first compound 0.8 µM) was 0.431, the relative viability ([4]; first compound 2.53 µM) was 0.35 and the relative viability ([4]; first compound 8 µM) was 0.386.
